Test results from patent publication US11229224B2, “Phytochemical compositions used as disinfectants and food preservatives” (priority 2012, dated 2022).

Experiments:
S. Montevideo = conditions: 500 μl AITC; cited from earlier work
Salmonella sp = conditions: submerging sprouts into 100 and 200 ppm hypochlorite solutions; cited from earlier work
native flora of alfalfa = test: Total count in non-inoculated alfalfa seed after disinfection; assay type: cell-based
Method: (§1) A comparison between the activity of aqueous extract and that of hypochlorite (1,000 and 10,000 ppm) was performed in non-inoculated seed. A total count was carried out in all cases.

native flora of soybeans = test: Total count in non-inoculated soybean seed after disinfection; assay type: cell-based
Method: as §1

soybean seeds = test: Toxic effect on seed germination (FIGS. 1 to 6); assay type: in vivo, soybean seeds (Vigna radiata L)
Method: Therefore, a study comparing the toxic effect of hypochlorite (1,000 and 10,000 ppm), hibiscus vegetal extract and acetic acid was performed, yielding the results shown in FIGS. 1 to 6.

toxigenic fungus = conditions: in food; cited from earlier work
most pathogens = conditions: in food; cited from earlier work
almost all flora = conditions: in food, within reasonable elevated limits of initial load; cited from earlier work
P. aeruginosa = test: Diffusion technique, inhibition zone on agar; assay type: cell-based, Pseudomonas aeruginosa; conditions: 1:10 dilution of aqueous hibiscus extract, 10 μL on plate, 35±1° C., 24 h
Method: (§2) This procedure was repeated twice. […] Finally, each strain was 10-fold diluted with ISS.
(§3) 100 μL from the first dilution of the respective pathogen culture were inoculated in AST plates. Inoculum was completely distributed on agar surface by the surface extension technique. From the dry extract, a 10% solution of hibiscus calyxes was prepared with distilled water. 10 μL aliquots of this extract were placed on each inoculated plate. Four repetitions were carried out. After the extract was absorbed by agar the plates were incubated at 35±1° C. for 24 h. Finally, the diameter of each inhibition zone was measured on the inoculated surface.

Enteroinvasive E. coli = test: Diffusion technique, inhibition zone on agar; assay type: cell-based, Escherichia coli; conditions: 1:10 dilution of aqueous hibiscus extract, 10 μL on plate, 35±1° C., 24 h
Method: as §2, §3

Enterapathogenic E. coli = test: Diffusion technique, inhibition zone on agar; assay type: cell-based, Escherichia coli; conditions: 1:10 dilution of aqueous hibiscus extract, 10 μL on plate, 35±1° C., 24 h
Method: as §2, §3

Enterotoxigenic E. coli = test: Diffusion technique, inhibition zone on agar; assay type: cell-based, Escherichia coli; conditions: 1:10 dilution of aqueous hibiscus extract, 10 μL on plate, 35±1° C., 24 h
Method: as §2, §3

E. coli = test: Diffusion technique, inhibition zone on agar; assay type: cell-based, Escherichia coli; conditions: 1:10 dilution of aqueous hibiscus extract, 10 μL on plate, 35±1° C., 24 h
Method: as §2, §3

S. aureus = test: Diffusion technique, inhibition zone on agar; assay type: cell-based, Staphylococcus aureus; conditions: 1:10 dilution of aqueous hibiscus extract, 10 μL on plate, 35±1° C., 24 h
Method: as §2, §3

S. typhimurium = test: Diffusion technique, inhibition zone on agar; assay type: cell-based, Salmonella typhimurium; conditions: 1:10 dilution of aqueous hibiscus extract, 10 μL on plate, 35±1° C., 24 h
Method: as §2, §3

V. cholerae O1 = test: Diffusion technique, inhibition zone on agar; assay type: cell-based, Vibrio cholerae O1; conditions: 1:10 dilution of aqueous hibiscus extract, 10 μL on plate, 35±1° C., 24 h
Method: as §2, §3

S. choleraesuis = test: Diffusion technique, inhibition zone on agar; assay type: cell-based, Salmonella choleraesuis; conditions: 1:10 dilution of aqueous hibiscus extract, 10 μL on plate, 35±1° C., 24 h
Method: as §2, §3

S. flexneri = test: Diffusion technique, inhibition zone on agar; assay type: cell-based, Shigella flexneri; conditions: 1:10 dilution of aqueous hibiscus extract, 10 μL on plate, 35±1° C., 24 h
Method: as §2, §3

L. monocytogenes = test: Diffusion technique, inhibition zone on agar; assay type: cell-based, Listeria monocytogenes; conditions: 1:10 dilution of aqueous hibiscus extract, 10 μL on plate, 35±1° C., 24 h
Method: as §2, §3

S. sonnei = test: Diffusion technique, inhibition zone on agar; assay type: cell-based, Shigella sonnei; conditions: 1:10 dilution of aqueous hibiscus extract, 10 μL on plate, 35±1° C., 24 h
Method: as §2, §3

[1] = Table 9, hypochlorite 1,000 ppm
[2] = Table 11, hypochlorite 10,000 ppm
[3] = Table 8, hypochlorite 1,000 ppm
[4] = Table 10, hypochlorite 10,000 ppm

For `C=CCN=C=S` [AITC], the “decrease of S. Montevideo on tomato cuticle” value (S. Montevideo) is listed as 8 Log.
In the case of `OCl` [Hypochlorite, sodium hypochlorite], the “reduction of Salmonella sp in sprouts” value (Salmonella sp) is listed as 1 Log10, the “% of decrease” value (native flora of alfalfa; [1]) is listed as 6.95% and the Decrease (native flora of alfalfa; [1]) is listed as 0.18 Log10 CFU/g. The Final concentration (native flora of alfalfa; Table 9, hypochlorite 1,000 ppm, initial 3.59, N = 3) was 3.41 ± 0.38 Log10 CFU/g, the “% of decrease” value (native flora of alfalfa; [2]) was 17.31% and the Decrease (native flora of alfalfa; [2]) was 0.40 Log10 CFU/g. The Final concentration (native flora of alfalfa; Table 11, hypochlorite 10,000 ppm, initial 3.30-3.31, N = 3) was 2.9 ± 0.56 Log10 CFU/g, the “% of decrease” value (native flora of soybeans; [3]) was 6.95% and the Decrease (native flora of soybeans; [3]) was 0.18 Log10 CFU/g. For the same compound, the Final concentration (native flora of soybeans; Table 8, hypochlorite 1,000 ppm, initial 2.59 ± 1.19, N = 3) was 2.41 ± 1.08 Log10 CFU/g, the “% of decrease” value (native flora of soybeans; [4]) was 17.31% and the Decrease (native flora of soybeans; [4]) was 0.40 Log10 CFU/g. The Final concentration (native flora of soybeans; Table 10, hypochlorite 10,000 ppm, initial 2.31 ± 0.89, N = 3) was 1.91 ± 1.23 Log10 CFU/g, the “structural damage of seeds” value (soybean seeds; FIGS. 2 and 4) was “structural damage” and the “decrease of the sprout yield” value (soybean seeds; hypochlorite, FIG. 4 (10,000 ppm sodium hypochlorite solution)) was 87.63%.
In the case of `CC(=O)O` [acetic acid], the “concentration that has effects on toxigenic fungus” value (toxigenic fungus) is listed as 0.5%, the “concentration that acts on most pathogens” value (most pathogens) is listed as 0.1% and the “concentration that inhibits almost all flora” value (almost all flora) is listed as 1-2%.
penicillin showed an Inhibition diameter (P. aeruginosa) of 13 mm, an Inhibition diameter (Enteroinvasive E. coli) of 12 mm and an Inhibition diameter (Enterapathogenic E. coli) of 11 mm. The Inhibition diameter (Enterotoxigenic E. coli) was 12 mm, the Inhibition diameter (E. coli) was 13 mm and the Inhibition diameter (S. aureus) was 13 mm. The Inhibition diameter (S. typhimurium) was 15 mm, the Inhibition diameter (V. cholerae O1) was 13 mm and the Inhibition diameter (S. choleraesuis) was 12 mm. For the same compound, the Inhibition diameter (S. flexneri) was 12 mm, the Inhibition diameter (L. monocytogenes) was 12 mm and the Inhibition diameter (S. sonnei) was 14 mm.
